Measured values taken from article PMC6385118, “Korean Thistle (Cirsium japonicum var. maackii (Maxim.) Matsum.): A Potential Dietary Supplement against Diabetes and Alzheimer’s Disease” (Molecules, 2019).
Read-outs that look alike come from different tables or passages of the source.

What was measured:
[1] = DPPH radical scavenging activity; details: for DPPH Inhibition (%), Mean ± SD: at 5 µM; for EC50: mean ± SD of triplicates
Description: DPPH radical scavenging activity were carried out using procedures previously described with slight modifications. Shortly, 160 µL of sample solutions/positive control (ascorbic acid) were mixed with 40 µL of DPPH solution and incubated at room temperature for 30 min. After that, absornace were measured at 520 nm using a microplate reader spectrophotometer VERSAmax (Molecular Devices).

[2] = Peroxynitrite (ONOO−) scavenging activity; details: for ONOO− Inhibition (%), Mean ± SD: at 5 µM; for EC50: mean ± SD of triplicates
Description: Peroxynitrite (ONOO^−) scavenging activity was carried ou with slight modifications. Shortly, 10 µL of sample solutions/positive control (penicillamine) were mixed with rhodamine buffer (pH 7.4) containing 50 mM sodium phosphate dibasic, 50 mM sodium phosphate monobasic, 90 mM sodium chloride, 5 mM potassium chloride, and 100 μM DTPA. The final DHR 123 concentration was 5 µM. The fluorescent intensities were measured after 5 min with/without authentic ONOO^− using a fluorescence microplate reader (Spectramax Gemini XPS, Molecular Devices) at wavelenghts of 485 and 530 nm of excitation and emission, respectively.

BACE1 = molecular target: T1, BACE1 (Homo sapiens, UniProt P56817); assay: In vitro BACE1 enzyme assay (FRET kit); format: biochemical
T1 construct: purchased PanVera Corp. (Madison, WI, USA)
T1 sequence (P56817 46-501): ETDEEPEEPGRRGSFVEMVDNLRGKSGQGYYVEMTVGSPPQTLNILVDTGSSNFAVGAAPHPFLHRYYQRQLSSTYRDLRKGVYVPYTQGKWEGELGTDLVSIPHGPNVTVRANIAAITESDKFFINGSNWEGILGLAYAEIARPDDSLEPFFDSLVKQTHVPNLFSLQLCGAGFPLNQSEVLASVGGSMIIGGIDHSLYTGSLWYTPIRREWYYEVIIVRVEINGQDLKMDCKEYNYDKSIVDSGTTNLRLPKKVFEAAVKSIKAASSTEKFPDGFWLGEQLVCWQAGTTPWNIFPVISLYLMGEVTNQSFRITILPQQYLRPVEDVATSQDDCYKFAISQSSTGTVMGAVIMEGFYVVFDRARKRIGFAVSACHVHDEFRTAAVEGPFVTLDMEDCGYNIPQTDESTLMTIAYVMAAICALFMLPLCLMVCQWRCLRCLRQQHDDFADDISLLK
Description: Each assay was carried out according to the supplied instructions provided by the manufacturer with slight modifications. […] After incubation, the reaction was ceased using 10 µL of BACE1 stop solution and absorbance was measured at 545 nm […] and 585 nm (emission) wavelengths using microplate spectrofluorometer (Spectramax Gemini XPS, Molecular Devices).
(§1) The inhibition constant (Ki) and inhibition mode of α-glucosidase and BACE1 were calculated with Lineweaver-Burk and Dixon plots. […] Each graph was generated using SigmaPlot 12.0 (Systat Software Inc., San Jose, CA, USA) and GraphPad Prism 5 (GraphPad Prism Software, Inc., La Jolla, CA, USA).

[3] = Pro-oxidant assay (reducing power); details: ascorbic acid as positive control; Figure 3
Description: The pro-oxidant activity of isolated compounds were assessed with slight modifications. Shortly, 250 µL of sample solutions/positive control (ascorbic acid) dissolved in 0.2 M phosphate buffer (pH 6.6) and 25 µL of 1% potassium ferricyanide […] were incubated at 50 °C for 20 min. After that, an equal volume of 10% trichloroacetic acid was added and then centriguged at 3000 g for 10 min. The supernatant (500 µL) and distilled water (500 µL) was mixed followed by addition of 0.1% ferric chloride (0.1 mL). Immediately, absorbance were measured spectrophotometrically at 700 nm.

human recombinant PTP1B = molecular target: T2, human recombinant PTP1B (Homo sapiens, UniProt P18031); assay: In vitro PTP1B inhibitory activity assay (p-NPP substrate); format: biochemical; details: mean ± SD of triplicates
T2 construct: purchased Biomol International, LLP (Plymouth Meeting, PA, USA)
T2 sequence (P18031 1-435): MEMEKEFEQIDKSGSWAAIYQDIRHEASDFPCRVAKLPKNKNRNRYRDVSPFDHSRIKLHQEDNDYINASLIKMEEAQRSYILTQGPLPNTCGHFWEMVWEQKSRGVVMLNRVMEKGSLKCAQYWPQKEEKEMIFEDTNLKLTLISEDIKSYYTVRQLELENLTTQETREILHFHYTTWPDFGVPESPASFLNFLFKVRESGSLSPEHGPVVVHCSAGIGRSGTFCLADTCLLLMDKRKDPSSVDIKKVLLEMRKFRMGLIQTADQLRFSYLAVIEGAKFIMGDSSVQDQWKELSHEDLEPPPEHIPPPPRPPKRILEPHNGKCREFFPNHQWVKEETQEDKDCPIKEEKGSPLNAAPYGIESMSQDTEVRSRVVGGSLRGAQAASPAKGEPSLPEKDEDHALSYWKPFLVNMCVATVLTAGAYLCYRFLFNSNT
Description: The inhibitory activity of the isolated compounds against human recombinant PTP1B was evaluated using p-NPP as a substrate with slight modifications. […] After incubation, the reaction was ceased using 10 µL of stop solution (10 mM sodium hydroxide) and absorbance was measured at 405 nm.

yeast α-glucosidase = assay: In vitro α-glucosidase inhibitory activity assay (p-NPG substrate); format: biochemical; details: for Ki: Dixon plot; for type of α-glucosidase inhibition (in words): Lineweaver-Burk and Dixon plots; for α-Glucosidase Inhibition (%), Mean ± SD: at 100 µM; for IC50: mean ± SD of triplicates
Description: The inhibitory activity against yeast α-glucosidase enzyme was carried out spectrophotometrically in a 96-well micro-plate reader (Molecular Devices, Sunnyvale, CA, USA), using a procedure reported by Li et al. with slight modifications. […] After 15 min of incubation, the reaction was ceased using 80 µL of stop solution (0.2 M sodium carbonate) and absorbance was measured at 405 nm.
as §1

α-glucosidase = details: cited from earlier work
[4] = read-out: BACE1 Inhibition (%), Mean ± SD

SMILES	EC50 [1] [µM]	EC50 [2] [µM]	IC50 (human recombinant PTP1B) [µM]	Ki (yeast α-glucosidase) [µM]	type of α-glucosidase inhibition (in words) (yeast α-glucosidase)	α-Glucosidase Inhibition (%), Mean ± SD (yeast α-glucosidase) [%]	IC50 (yeast α-glucosidase) [µM]	DPPH Inhibition (%), Mean ± SD [1] [%]	ONOO− Inhibition (%), Mean ± SD [2] [%]	reducing power (pro-oxidant activity) [3]	also measured
O=c1cc(-c2ccc(O)c(O)c2)oc2cc(O)cc(O[C@@H]3O[C@H](CO)[C@@H](O)[C@H](O)[C@H]3O)c12 [Luteolin 5-O-β-D-glucopyranoside, luteolin 5-O-β-D-glucopyranoside]	4.76 ± 0.05	0.5 ± 0.03	> 400	272	mixed type of inhibition	14.02 ± 1.45	270 ± 4.69	52.43 ± 0.53	79.23 ± 4.95	higher reducing power	inhibition at 100 µM (BACE1; at 100 µM, read-out: BACE1 Inhibition (%), Mean ± SD): 17.5 ± 1.65%; IC50 (BACE1; mean ± SD of triplicates): 970 ± 7.83 µM
O=c1cc(-c2ccc(O)c(O)c2)oc2cc(O[C@@H]3O[C@H](CO)[C@@H](O)[C@H](O)[C@H]3O)cc(O)c12 [Luteolin 7-O-β-D-glucopyranoside, luteolin 7-O-β-D-glucopyranoside]	4.79 ± 0.19	2.51 ± 0.05	> 400	251	competitive inhibition	25.53 ± 1.21	249 ± 2.56	58.97 ± 1.95	80.23 ± 4.22	–	–
O=c1cc(-c2ccc(O)c(O)c2)oc2cc(O)cc(O)c12 [Luteolin, luteolin]	3.05 ± 0.06	0.86 ± 0.04	> 400	52	non-competitive	69.12 ± 1.20	51.3 ± 1.23	76.65 ± 0.73	85.21 ± 1.61	lower reducing power than positive control ascorbic acid	type of BACE1 inhibition (in words) (BACE1; Lineweaver-Burk and Dixon plots): non-competitive; inhibition at 100 µM (BACE1; [4]): 73.73 ± 0.57%; potency against α-glucosidase compared with the positive control, acarbose (yeast α-glucosidase; ratio of IC50 values): five-fold more potent; α-glucosidase inhibition percentage (α-glucosidase; at 200 µM, mixed type (close to non-competitive), ref Tadera et al. [31]): 92%; α-glucosidase inhibition (α-glucosidase; at a concentration of 0.5 mg/mL, ref Kim et al. [32]): 36%; IC50 (α-glucosidase; mixed type inhibition, ref Xu et al. [35]): 18.6 µM; IC50 (α-glucosidase; non-competitive inhibition, ref Ha et al. [28]): 45.4 µM; IC50 (α-glucosidase; ref Proença et al. [34]): 46 ± 6 µM; IC50 (α-glucosidase; reversible, non-competitive, ref Yan et al. [29]): 172 µM
O=c1c(O)c(-c2ccc(O)c(O)c2)oc2cc(O)cc(O)c12 [Quercetin, quercetin, reference compound]	–	–	–	–	–	–	–	–	–	–	inhibition at 4.5 µg/mL (BACE1; [4]): 70 ± 3.91%; inhibition at 10 µM (BACE1; [4]): 67.6 ± 4.1%

The next lines start with results.

EC50 [1] [µM]	EC50 [2] [µM]	IC50 (human recombinant PTP1B) [µM]	Ki (yeast α-glucosidase) [µM]	type of α-glucosidase inhibition (in words) (yeast α-glucosidase)	α-Glucosidase Inhibition (%), Mean ± SD (yeast α-glucosidase) [%]	IC50 (yeast α-glucosidase) [µM]	SMILES	DPPH Inhibition (%), Mean ± SD [1] [%]	ONOO− Inhibition (%), Mean ± SD [2] [%]	reducing power (pro-oxidant activity) [3]	also measured
21.35 ± 0.09	–	–	–	–	–	–	O=C1O[C@H]([C@@H](O)CO)C(O)=C1O [Ascorbic acid, ascorbic acid, reference compound]	18.72 ± 0.44	–	–	–
–	2.28 ± 0.02	–	–	–	–	–	CC(C)(S)[C@@H](N)C(=O)O [Penicillamine, penicillamine, reference compound]	–	56.57 ± 2.03	–	–
